From ChEMBL document CHEMBL4823279, “Epigenetic Manipulation to Trigger Production of Guaiane-Type Sesquiterpenes from a Marine-Derived Spiromastix sp. Fungus with Antineuroinflammatory Effects” (J Nat Prod, 2021) come the findings set out here.

Structures are written as SMILES. pIC50: −log10 of the molar value. Active and inactive are the calls of the source. The calls are words filed in the database; no cut-off is given here. Some results are limits rather than exact numbers.

A word on the CC50: it is the concentration that lowers cell viability or growth by half. By pIC50 is commonly meant the IC50 on a negative log10 scale, so that one unit is a factor of ten.

Series [1] can be described thus: Cytotoxicity against mouse BV-2 cells assessed as reduction in cell viability measured after 24 hrs by MTT assay. In kind it is cell-based. (Tetrazolium dyes change colour on reduction, which living cells bring about.)
The test system of series [2] is BV-2. In words: Anti-neuroinflammatory activity in mouse BV-2 cells assessed as inhibition of LPS-induced NO production measured after 24 hrs by Griess reagent based assay. In kind it is functional, cell-based. Conditions: BV-2, 24 h. (In general: Griess reagent forms a coloured azo dye with nitrite.)
Series [3] concerns BV-2. In words: Anti-neuroinflammatory activity against LPS stimulated mouse BV-2 cells assessed as reduction in iNOS protein expression measured after 24 hrs in presence of LPS by western blot analysis. In kind it is functional, cell-based. The note with it: dose 1-10 µM. On the technique in general: In western blotting, separated proteins are transferred to a membrane and probed.

For series [4], the system named is BV-2. Description: Anti-neuroinflammatory activity against LPS stimulated mouse BV-2 cells assessed as reduction in COX-2 protein expression at 1 to 10 uM measured after 24 hrs in presence of LPS by western blot analysis. In kind it is functional, cell-based. Conditions: dose 1-10 µM.
The test system of series [5] is BV-2. In words: Inhibition of TLR4 production in LPS stimulated mouse BV-2 cells at 1 to 10 uM preincubated with LPS for 1 hr followed by incubation with compound for 16 hrs by western blot analysis. In kind it is functional, cell-based. Conditions: dose 1-10 µM.
In series [6] the target is c-Jun N-terminal kinase (Mus musculus) (UniProt Q91Y86+Q9WTU6+Q61831). In words: Inhibition of JNK phosphorylation in LPS stimulated mouse BV-2 cells at 1 to 10 uM preincubated with LPS for 1 hr followed by incubation with compound for 16 hrs by western blot analysis. In kind it is cell-based. The note with it: dose 1-10 µM.
Series [7] has as its system BV-2. Description: Inhibition of ERK phosphorylation in LPS stimulated mouse BV-2 cells at 1 to 10 uM preincubated with LPS for 1 hr followed by incubation with compound for 16 hrs by western blot analysis. In kind it is cell-based. The note with it: dose 1-10 µM.
The target in series [8] is MAP kinase p38 (Mus musculus) (UniProt P47811+O08911+Q9WUI1+Q9Z1B7). In words: Inhibition of p38 phosphorylation in LPS stimulated mouse BV-2 cells at 1 to 10 uM preincubated with LPS for 1 hr followed by incubation with compound for 16 hrs by western blot analysis. The class given is cell-based. Conditions: dose 1-10 µM.
The target of series [9] is Transcription factor p65 (Mus musculus) (UniProt Q04207). Description: Inhibition of NF-kappaB p65 nuclear translocation in LPS-stimulated mouse BV-2 cells at 10 uM incubated with compound prior to LPS stimulation by DAPI staining based immunofluorescence assay. The class given is cell-based.
For series [10], the system named is BV-2. Description: Anti-neuroinflammatory activity in mouse BV-2 cells assessed as reduction in LPS-stimulated IL-1 beta production at 1 to 10 uM preincubated for 1 hr followed by LPS treatment and measured after 24 hrs by ELISA. The class given is functional, cell-based. The note with it: dose 1-10 µM, time 25.0 hrs.
The subject of series [11] is BV-2. Description: Anti-neuroinflammatory activity in mouse BV-2 cells assessed as reduction in LPS-stimulated IL-6 production at 1 to 10 uM preincubated for 1 hr followed by LPS treatment and measured after 24 hrs by ELISA. In kind it is functional, cell-based. Conditions: dose 1-10 µM, time 25.0 hrs.
The test system of series [12] is BV-2. In words: Anti-neuroinflammatory activity in mouse BV-2 cells assessed as reduction in LPS-stimulated TNFalpha production at 1 to 10 uM preincubated for 1 hr followed by LPS treatment and measured after 24 hrs by ELISA. In kind it is functional, cell-based. Conditions: dose 1-10 µM, time 25.0 hrs.
The test system of series [13] is BV-2. Description: Anti-neuroinflammatory activity in mouse BV-2 cells assessed as reduction in LPS-stimulated iNOS mRNA expression at 1 to 10 uM by qRT-PCR analysis. The class given is functional, cell-based. The note with it: dose 1-10 µM.
For series [14], the system named is BV-2. In words: Anti-neuroinflammatory activity in mouse BV-2 cells assessed as reduction in LPS-stimulated COX-2 mRNA expression at 1 to 10 uM by qRT-PCR analysis. In kind it is functional, cell-based. Conditions: dose 1-10 µM.
The test system of series [15] is BV-2. In words: Anti-neuroinflammatory activity in mouse BV-2 cells assessed as reduction in LPS-stimulated IL-1beta mRNA expression by qRT-PCR analysis. The class given is functional, cell-based. The note with it: dose 1-10 µM.
Series [16] relates to BV-2. Description: Anti-neuroinflammatory activity in mouse BV-2 cells assessed as reduction in LPS-stimulated IL-6 mRNA expression by qRT-PCR analysis. In kind it is functional, cell-based. Conditions: dose 1-10 µM.
The subject of series [17] is BV-2. In words: Anti-neuroinflammatory activity in mouse BV-2 cells assessed as reduction in LPS-stimulated TNF-alpha mRNA expression by qRT-PCR analysis. The class given is functional, cell-based. Conditions: dose 1-10 µM.

c-Jun N-terminal kinase (Mus musculus), sequence (Q61831 whole entry, looked up): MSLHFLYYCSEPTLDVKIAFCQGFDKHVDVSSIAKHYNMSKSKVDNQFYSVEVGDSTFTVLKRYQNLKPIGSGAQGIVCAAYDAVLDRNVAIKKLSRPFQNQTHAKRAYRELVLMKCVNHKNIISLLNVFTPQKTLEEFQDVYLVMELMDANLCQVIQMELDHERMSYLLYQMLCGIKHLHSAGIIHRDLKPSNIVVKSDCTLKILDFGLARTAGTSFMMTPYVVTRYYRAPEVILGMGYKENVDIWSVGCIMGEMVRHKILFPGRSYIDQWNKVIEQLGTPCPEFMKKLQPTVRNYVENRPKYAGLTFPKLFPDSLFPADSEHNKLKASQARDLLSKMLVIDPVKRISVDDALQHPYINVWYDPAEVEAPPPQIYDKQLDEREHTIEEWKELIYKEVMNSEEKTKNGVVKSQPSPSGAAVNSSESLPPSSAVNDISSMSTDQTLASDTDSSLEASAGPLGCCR
c-Jun N-terminal kinase (Mus musculus), sequence (Q91Y86 whole entry, looked up): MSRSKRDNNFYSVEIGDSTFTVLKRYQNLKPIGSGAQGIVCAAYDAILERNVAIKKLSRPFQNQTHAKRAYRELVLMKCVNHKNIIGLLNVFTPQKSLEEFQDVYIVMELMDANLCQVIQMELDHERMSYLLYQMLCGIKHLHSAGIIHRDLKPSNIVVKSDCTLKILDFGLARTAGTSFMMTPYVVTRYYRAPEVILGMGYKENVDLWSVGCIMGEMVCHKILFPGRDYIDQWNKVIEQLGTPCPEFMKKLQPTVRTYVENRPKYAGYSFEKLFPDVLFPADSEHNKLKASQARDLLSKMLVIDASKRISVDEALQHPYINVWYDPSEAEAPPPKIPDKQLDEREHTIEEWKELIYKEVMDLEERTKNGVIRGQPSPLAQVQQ
c-Jun N-terminal kinase (Mus musculus), sequence (Q9WTU6 whole entry, looked up): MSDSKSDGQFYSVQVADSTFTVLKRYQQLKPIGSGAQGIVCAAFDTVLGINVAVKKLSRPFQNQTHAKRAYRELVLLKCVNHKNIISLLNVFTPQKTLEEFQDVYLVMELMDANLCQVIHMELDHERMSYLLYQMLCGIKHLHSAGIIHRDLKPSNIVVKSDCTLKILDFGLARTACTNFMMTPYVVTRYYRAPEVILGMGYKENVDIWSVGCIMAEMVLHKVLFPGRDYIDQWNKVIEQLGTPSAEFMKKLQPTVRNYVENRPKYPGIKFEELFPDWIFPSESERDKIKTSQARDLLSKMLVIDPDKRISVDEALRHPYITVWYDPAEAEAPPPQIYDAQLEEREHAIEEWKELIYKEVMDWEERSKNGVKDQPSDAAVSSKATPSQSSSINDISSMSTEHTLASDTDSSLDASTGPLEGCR
Transcription factor p65 (Mus musculus), sequence (Q04207 whole entry): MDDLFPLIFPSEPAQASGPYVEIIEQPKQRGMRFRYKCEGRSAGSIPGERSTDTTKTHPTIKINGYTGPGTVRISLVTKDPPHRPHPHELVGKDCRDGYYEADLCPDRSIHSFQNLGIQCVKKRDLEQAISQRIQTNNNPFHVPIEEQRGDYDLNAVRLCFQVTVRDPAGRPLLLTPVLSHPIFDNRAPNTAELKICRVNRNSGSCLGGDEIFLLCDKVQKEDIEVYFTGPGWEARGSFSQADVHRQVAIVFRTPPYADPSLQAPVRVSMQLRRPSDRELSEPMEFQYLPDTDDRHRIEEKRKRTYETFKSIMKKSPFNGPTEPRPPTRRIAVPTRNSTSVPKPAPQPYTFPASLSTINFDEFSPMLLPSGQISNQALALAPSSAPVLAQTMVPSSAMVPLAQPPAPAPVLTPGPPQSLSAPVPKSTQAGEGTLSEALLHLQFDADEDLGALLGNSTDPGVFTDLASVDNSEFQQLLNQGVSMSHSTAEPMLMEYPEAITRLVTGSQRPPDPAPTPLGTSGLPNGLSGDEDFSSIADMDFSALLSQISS

Take `CNC(=N)NCCC[C@H](N)C(=O)O` [TILARGININE]: the CC50 at 24 h in series [1] is more than 200 µM. The pIC50 in series [2] was 5.00.

Regarding `Cc1c2c(cc(C(C)C)cc1=O)[C@@](C)(O)CC2`, the CC50 at 24 h in [1] was 79 µM. Besides, the pIC50 in [2] is less than 4.52.

With `Cc1c2c(cc(C(C)C)cc1=O)[C@](C)(O)C[C@@H]2O`, the half-maximal cytotoxic concentration (CC50) at 24 h in series [1] is 49 µM. In series [2], the pIC50 is less than 4.52.

Regarding `Cc1c2c(cc(C(C)C)cc1=O)[C@@H](C)CC2`, the CC50 at 24 h in series [1] stood at 76 µM. Also, the pIC50 in series [2] was less than 4.52.

As for `CC(C)c1cc2c(c(CO)c(=O)c1)[C@@H](O)C[C@@H]2C`, in [1], the CC50 at 24 h is 49 µM. Moreover, the pIC50 in series [2] is 4.70.

In the case of `Cc1c2c(cc(C(C)C)cc1=O)[C@@H](C)C[C@@H]2O`, the CC50 at 24 h in series [1] stood at 35 µM. The pIC50 in series [2] was less than 4.52.

With `Cc1c2c(cc(C(C)C)cc1=O)[C@@H](C)C[C@H]2O`, in [1], the CC50 at 24 h was found to be 78 µM. Also, the pIC50 in series [2] was 4.59.

In the case of `Cc1c2c(cc(C(C)(C)O)cc1=O)[C@@H](C)C[C@@H]2O`, in series [1], the CC50 at 24 h was 39 µM. Also, in [2], the negative-log IC50 (pIC50) is less than 4.52.

Regarding `CC(C)c1cc2c(c(CO)c(=O)c1)CC[C@@]2(C)O`, the CC50 at 24 h in series [1] is 61 µM. The pIC50 in series [2] was less than 4.52.

Take `CC(C)c1cc2c(c(CO)c(=O)c1)[C@H](O)C[C@@H]2C`: the CC50 at 24 h in series [1] worked out at 74 µM. The pIC50 in [2] is 5.05. The Activity entry in series [3] is “Dose-Dependent Effect”. In addition, the result in series [4], in [10], in [11], in series [12], in series [13] and in series [14] was Active. For the same compound, the outcome in series [15], in series [16] and in series [17] was Active. For the same compound, the inhibition entry in series [5], in series [6], in series [7] and in series [8] was “inactive” throughout. The inhibition result in series [9] was “Active”.
